Test results taken from patent publication US5863913A, “Aromatic compound and pharmaceutical composition” (Kureha Chemical Industry Co., Ltd., priority 1996, dated 1999).

What was measured:
[1] = test system: kidney disease model rats; assay: Renal function indicatory value in kidney disease model rats; format: in vivo, Sprague-Dawley female rats; details: 20 mg/kg/day with drinking water, six weeks
Procedure: (§1) The kidney disease model rats were prepared by a ligature of branches of renal artery in accordance with a conventional method. Namely, the left hilum renalis of Sprague-Dawley female rats was exposed under anesthesia, and one of four secondary branches of the renal artery was left unligated, while the remaining three branches were ligated, respectively. After a week, the hilum renalis (artery, vein, and ureter) of the right kidney were further ligated to thereby prepare rats whose renal function was lowered to approximately 1/8 of the normal function. Each group consisted of eight rats. The drugs to be tested (20 mg/kg) were administered to each administering group, and only water was administered to a control group. Two days after the administration, the systolic blood pressure was measured by the tail cuff method using a blood pressure measuring apparatus (UR5000; Ueda).
The rats in each group were allowed to freely take up food. […] To the rats in the control group, only water was administered every day. After six weeks, 0.2 ml of blood was collected from the carotid artery of the rats under anesthesia, and centrifuged to obtain serum. Using 25 μl of the serum, the serum creatinine (Scr) was measured by a creatinine analytical instrument (Beckman). Using 10 μl of the serum, the blood urea nitrogen (BUN) was measured by a BUN analytical instrument (Beckman). The creatinine clearance was evaluated as follows:
After the serum creatinine measurement, rats were placed in urinary metabolic cages for 24 hours to collect urine. A urinary creatine concentration (Ucr) was measured by a creatinine analytical instrument, and a total volume of urination (Uvol) was also measured. The creatinine clearance (CCr) was calculated by the following formula: [formula]

[2] = test system: ICR female mice; assay: Acute toxicity, single oral dose in mice; details: mouse, in vivo
Procedure: The aromatic compounds of the formula (I) according to the present invention were orally administered to mice at the dose of 500 mg/kg, but no fatalities were observed over a period of one week.
Five-week-old ICR female mice (5 mice per group) were bred for acclimation for a week. Then, the compounds of the present invention were dissolved in water, and orally administered to the mice in a single dosage (500 mg/kg).

[3] = test system: kidney disease model rats; assay: Action to lower blood pressure in kidney disease model rats (tail cuff); format: in vivo, Sprague-Dawley female rats; details: systolic, average of 8 rats, 20 mg/kg with drinking water, two days after administration; control 210
Procedure: as §1, with “The compounds of the present invention and the reference substance were administered with drinking water to kidney disease model rats, and the action of lowering the blood pressure was observed. The kidney” for “The kidney”

[4] = molecular target: T1, angiotensin II receptor subtype 1 (AT1) (Oryctolagus cuniculus, UniProt P34976); assay: Binding to receptors: angiotensin II receptor subtype 1 (AT1); parameters: species or system rabbits (adrenal glands); details: rabbit adrenal glands, tracer 3H-angiotensin II
T1 construct: receptor : from adrenal glands in rabbits; from tissue; host or cells: rabbit adrenal glands
T1 sequence (P34976 1-359): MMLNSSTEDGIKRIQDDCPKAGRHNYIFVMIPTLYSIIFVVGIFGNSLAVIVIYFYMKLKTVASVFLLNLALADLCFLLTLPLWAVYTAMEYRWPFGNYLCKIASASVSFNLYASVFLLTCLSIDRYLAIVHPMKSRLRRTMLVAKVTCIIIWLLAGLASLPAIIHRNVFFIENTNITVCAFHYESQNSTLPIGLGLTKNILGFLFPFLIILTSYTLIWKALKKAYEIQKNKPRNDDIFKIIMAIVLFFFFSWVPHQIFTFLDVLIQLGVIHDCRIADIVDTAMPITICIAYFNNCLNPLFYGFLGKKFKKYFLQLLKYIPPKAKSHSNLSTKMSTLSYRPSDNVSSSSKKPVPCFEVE
Procedure: In this Example, the affinity to the angiotensin II receptor subtype 1 or subtype 2 was evaluated by a binding assay in accordance with the method described in Biochem. Pharmacol., 33, 4057-4062 (1984).
Specifically, the measurement of the total binding in the presence of each drug was performed as follows:
A mixture (final volume=0.25 ml) of a drug in a given concentration (the drug was dissolved in DMSO, and diluted to a double volume with a buffer attached to a drug discovery system to prepare a sample for the assay; 0.025 ml), a tracer (0.025 ml), and receptors (0.2 ml) was incubated [in the case of the angiotensin II receptor subtype 1 (AT1), at room temperature for 3 hours, and in the case of the subtype 2 (AT2), at 37° C. for 1 hour]. Then, the reaction mixture was filtered with suction (GF/C filter was used in AT1, and GF/B filter was used in AT2). The filter papers after filtration with suction (the tracer bound to the receptors) were counted by a γ-well counter (ARC-500, Aloka). The non-specific bindings were measured by repeating the above method, except that a large excess amount of a displacer was added. The specific binding of the drug in the given concentration was calculated by subtracting the non-specific binding from the total binding, respectively.
receptor : from adrenal glands in rabbits
tracer : ^3 Hangiotensin II

[5] = Oral absorption (amount of compound in rat serum by HPLC, area under curve); format: in vivo, Sprague-Dawley female rats; details: single dosage 160 mg/kg in water, 0.5 to 24 hours, average of 3 rats
Procedure: Twelve-week-old Sprague-Dawley female rats (3 rats per group) were bred for acclimation for a week. Then, the compounds of the present invention and a reference substrate were dissolved in water, and orally administered to the rats in a single dosage (160 mg/kg). After 0.5 hour, 1 hour, 2 hours, 4 hours, 6 hours, 8 hours, and 24 hours, the amounts of each compound (ng) per 1 ml of serum were measured using HPLC. Curves were obtained from the relation between an elapsed time after administration and the amount of the compound in serum at each elapsed time, respectively, and an average of the areas under the curves was calculated.
As a reference substance, Compound No. 184 disclosed in Japanese Unexamined Patent Publication (Kokai) No. 8-48651 was used. Compound No. 184 corresponds to the compound of the formula (I) wherein R^1 =nBu, A=N, Z=C, R^2 =CO, R^3 =NC4 H8 O, R^4 =H, R^5 =Me, and R^6 =Me.

[6] = test system: kidney disease model rats; assay: Survival time of kidney diseased animals; format: in vivo, Sprague-Dawley female rats; details: 20 mg/kg/day with drinking water, observation period eight weeks (upper limit); control 5.0
Procedure: as §1, with “The compounds of the present invention and the reference substance were administered with drinking water to kidney disease model rats, and the action of lowering the blood pressure was observed. The kidney” for “The kidney”
The kidney disease model rats were prepared as in Example 54. Twenty-two groups (8 rats per group) were prepared in a manner such that there was no major difference between the groups in the serum creatinine value and the blood urea nitrogen value indicating renal function. The rats in each group were allowed to freely take up food. […] To the rats in the control group, only water was administered every day. If kidney diseases are aggravated, the rat will die of uremia. Thus, the survival time was observed as a comprehensive indication of the improvement of the effect on the kidney diseases. The observation period was eight weeks. Thus if all rats survived, the average survival time is eight weeks, and is an upper limit.

**Q.** With `CCCCC(=O)N(Cc1ccc(C(=O)O)cc1)c1cc(C(=O)N2CCN(CCC)CC2)ccc1N(C)C` [Compound No. 11, 4-dimethylamino-3-N-[[(4-carboxyphenyl)methyl]valeramido]benzoic acid 4'-n-propylpiperazide] as the molecule, how does the Creatinine clearance ([1]; 24 hours urine, control 0.22) read?
**A.** 0.42 mL/min

**Q.** And the Creatinine ([1]; serum, control 2.0)?
**A.** 1.2 mg/dL

**Q.** And the Blood urea nitrogen ([1]; serum, control 100)?
**A.** 62 mg/dL

**Q.** And the “Number of deaths/number of survivals” value [2]?
**A.** 0/5

**Q.** What about the “Blood Pressure” value [3] of the same molecule?
**A.** 204 mmHg

**Q.** What about the inhibition at 100 µM [4] of the same molecule?
**A.** 0%

**Q.** What about the AUC at 24 h [5] of the same molecule?
**A.** 76000 ng·h/mL

**Q.** And the Average survival time [6]?
**A.** 7.3 weeks

**Q.** With `CCCCC(=O)N(Cc1ccc(C(=O)O)cc1)c1cc(C(=O)N2CCOCC2)ccc1N(C)C` [reference substance, 3-N-[[(4-carboxyphenyl)methyl]valeramido]-4-dimethylaminobenzoic acid morpholide, reference compound] as the molecule, how does the AUC at 24 h [5] read?
**A.** 622 ng·h/mL
